Where a name gives a salt, the structure may show the parent alone.

The values below come from US6407103B2, “Indeno [1,2-c] pyrazol-4-ones and their uses” (Bristol-Myers Squibb Pharma Company, priority 1998, dated 2002).

What is called melting point is the temperature, or range, at which the solid turns liquid. Turning to `O=C(Nc1cccc2c1C(=O)c1c-2n[nH]c1C1CCN(C(=O)Oc2ccccc2)CC1)NN1CCOCC1` (as salt: TFA), the melting point is 250 °C.

`O=C(Nc1cccc2c1C(=O)c1c-2n[nH]c1-c1ccc(C(=O)NC2CN3CCC2CC3)s1)NN1CCOCC1` (stereo not shown) (as salt: TFA) gave a melting point of 245 °C.

In turn, `O=C(Nc1cccc2c1C(=O)c1c-2n[nH]c1[C@H]1CC[C@H](C(=O)O)CC1)NN1CCOCC1` (as salt: TFA) [Example CCC, 3-(trans-4-carboxylcyclohexyl)-5-(morpholinocarbamoylamino)indeno[1,2-c]pyrazol-4-one] gave a melting point of 264 °C.

In turn, `COC(=O)[C@H]1CC[C@H](c2[nH]nc3c2C(=O)c2c(NC(=O)NN4CCOCC4)cccc2-3)CC1` (as salt: TFA) [Example CCCI, 3-(trans-4-(methoxycarbonyl)cyclohexyl)-5-(morpholinocarbamoylamino)indeno[1,2-c]pyrazol-4-one] returned a melting point of 259 °C.

`CN(C)C1CCN(C(=O)[C@H]2CC[C@H](c3[nH]nc4c3C(=O)c3c(NC(=O)NN5CCOCC5)cccc3-4)CC2)C1` (stereo partly drawn) (as salt: TFA) [Example CCCII, 3-(trans-4-(3-(dimethylamino)pyrrolidinocarbonyl)cyclohexyl)-5-(morpholinocarbamoylamino)indeno[1,2-c]pyrazol-4-one] had a melting point of 191 °C.

With `O=C(Nc1cccc2c1C(=O)c1c-2n[nH]c1[C@H]1CC[C@H](C(=O)N2CCNCC2)CC1)NN1CCOCC1` (as salt: TFA) [Example CCCIII, 3-(trans-4-(piperazinocarbonyl)cyclohexyl)-5-(morpholinocarbamoylamino)indeno[1,2-c]pyrazol-4-one], the melting point came out at 248 °C.

Take `CN1CCN(C(=O)[C@H]2CC[C@H](c3[nH]nc4c3C(=O)c3c(NC(=O)NN5CCOCC5)cccc3-4)CC2)CC1` (as salt: TFA) [Example CCCIV, 3-(trans-4-(4-methylpiperazinocarbonyl)cyclohexyl)-5-(morpholinocarbamoylamino)indeno[1,2-c]pyrazol-4-one]: the melting point was 228 °C.

On to `COC[C@H]1CCCN1NC(=O)Nc1cccc2c1C(=O)c1c-2n[nH]c1-c1ccc(C(=O)O)s1` (as salt: TFA) [Example CCII, 3-(5-carboxyl-2-thienyl)-5-(2(R)-(methoxymethyl)pyrrolidinocarbamoylamino)indeno[1,2-c]pyrazol-4-one], for which the melting point was found to be 258 °C.

Consider `COC[C@H]1CCCN1NC(=O)Nc1cccc2c1C(=O)c1c-2n[nH]c1-c1ccc(C(=O)N2CCN(C)CC2)s1` (as salt: TFA) [Example CCIII, 3-(5-(4-methylpiperazinocarbonyl)-2-thienyl)-5-(2(R)-(methoxymethyl)pyrrolidinocarbamoylamino)indeno[1,2-c]pyrazol-4-one], for which the melting point was 181 °C.

`COC[C@H]1CCCN1NC(=O)Nc1cccc2c1C(=O)c1c-2n[nH]c1-c1ccc(C(=O)N2CCNCC2)s1` (as salt: TFA) [Example CCIV, 3-(5-piperazinocarbonyl-2-thienyl)-5-(2(R)-(methoxymethyl)pyrrolidinocarbamoylamino)indeno[1,2-c]pyrazol-4-one]: the melting point is more than 300 °C.

For `O=C(Nc1cccc2c1C(=O)c1c-2n[nH]c1-c1ccc(N2CCC(N3CCCCC3)CC2)cc1)NN1CCOCC1` (as salt: TFA) [Example CCL, 3-(4-(4-piperidinopiperidino)phenyl)-5-(morpholinocarbamoylamino)indeno[1,2-c]pyrazol-4-one], the melting point stood at 233 °C.

Take `O=C(Nc1cccc2c1C(=O)c1c-2n[nH]c1-c1ccc(N2CCC(N3CCCC3)CC2)cc1)NN1CCOCC1` (as salt: TFA) [Example CCLI, 3-(4-(4-pyrrolidinopiperidino)phenyl)-5-(morpholinocarbamoylamino)indeno[1,2-c]pyrazol-4-one]: the melting point amounted to 247 °C.

`CCN(CC)C1CCN(c2ccc(-c3[nH]nc4c3C(=O)c3c(NC(=O)NN5CCOCC5)cccc3-4)cc2)CC1` (as salt: TFA) [Example CCLII, 3-(4-(4-(N,N-diethylamino)piperidino)phenyl)-5-(morpholinocarbamoylamino)indeno[1,2-c]pyrazol-4-one] gave a melting point of 251 °C.

The compound `CC(=N)N1CCN(c2ccc(-c3[nH]nc4c3C(=O)c3c(NC(=O)NN5CCOCC5)cccc3-4)cc2)CC1` (as salt: TFA) [Example CCLIII, 3-(4-(4-(1-iminoethyl)piperazino)phenyl)-5-(morpholinocarbamoylamino)indeno[1,2-c]pyrazol-4-one] returned a melting point of 240 °C.

Compound `CCc1[nH]nc2c1C(=O)c1c(NC(=O)NN3CCOCC3)cccc1-2` (as salt: TFA) [Example CCLIX, 3-ethyl-5-(morpholinocarbamoylamino)indeno[1,2-c]pyrazol-4-one] returned a melting point of 253 °C.

The compound `CCc1[nH]nc2c1C(=O)c1c(NC(=O)NN3CCN(C)CC3)cccc1-2` (as salt: TFA) [Example CCLVI, 3-ethyl-5-(4-methylpiperazinocarbamoylamino)indeno[1,2-c]pyrazol-4-one] returned a melting point of 244 °C.

`CCOC(=O)N1CCC(c2[nH]nc3c2C(=O)c2c(NC(=O)NN4CCOCC4)cccc2-3)CC1` (as salt: TFA) [Example CCLXII, 3-(1-ethoxycarbonylpiperidin-4-yl)-5-(morpholinocarbamoylamino)indeno[1,2-c]pyrazol-4-one]: the melting point came out at 206 °C.

`O=C(Nc1cccc2c1C(=O)c1c-2n[nH]c1C1CCN(C(=O)n2ccnc2)CC1)NN1CCOCC1` (as salt: TFA) [Example CCLXIV, 3-(1-(imidazol-1-ylcarbonyl)piperidin-4-yl)-5-(morpholinocarbamoylamino)indeno[1,2-c]pyrazol-4-one]: the melting point was 202 °C.

The compound `CN(C)C1CCN(C(=O)N2CCC(c3[nH]nc4c3C(=O)c3c(NC(=O)NN5CCOCC5)cccc3-4)CC2)CC1` (as salt: TFA) [Example CCLXIX, 3-(1-(4-(dimethylamino)piperidinocarbonyl)piperidin-4-yl)-5-(morpholinocarbamoylamino)indeno[1,2-c]pyrazol-4-one] had a melting point of 172 °C.

For the compound `O=C(Nc1cccc2c1C(=O)c1c-2n[nH]c1C1CCN(C(=O)c2cccs2)CC1)NN1CCOCC1` (as salt: TFA) [Example CCLXV, 3-(1-(2-thienylcarbonyl)piperidin-4-yl)-5-(morpholinocarbamoylamino)indeno[1,2-c]pyrazol-4-one], the melting point worked out at 218 °C.

The compound `NC(=O)N1CCC(c2[nH]nc3c2C(=O)c2c(NC(=O)NN4CCOCC4)cccc2-3)CC1` (as salt: TFA) [Example CCLXVI, 3-(1-carbamoylpiperidin-4-yl)-5-(morpholinocarbamoylamino)indeno[1,2-c]pyrazol-4-one] displayed a melting point of 258 °C.

Compound `O=C(Nc1cccc2c1C(=O)c1c-2n[nH]c1C1CCN(C(=O)N2CCNCC2)CC1)NN1CCOCC1` (as salt: TFA) [Example CCLXX, 3-(1-(piperazinocarbonyl)piperidin-4-yl)-5-(morpholinocarbamoylamino)indeno[1,2-c]pyrazol-4-one] came in with a melting point of 195 °C.
